Drawing on DBAASP, this text covers MIC for twelve molecules.

What all share (assay): ≥ marks a high value that may be exact or a test limit, other limits are often not marked, values filed in µg/mL are converted to µM
Assay [1] deals with Escherichia coli ATCC 25922.
Assay [2] concerns Staphylococcus aureus ATCC 25923.
For assay [3], the system named is Pseudomonas aeruginosa ATCC 27853.
The next assay concerns Escherichia coli.
A further assay deals with Pseudomonas aeruginosa.

Values after ≈ are worked out from the molar mass of the structure shown.

Molecule `CC[C@H](C)[C@H](NC(=O)[C@H](CCCN=C(N)N)NC(=O)[C@H](Cc1c[nH]c2ccccc12)NC(=O)[C@@H](N)Cc1ccccc1)C(=O)N[C@@H](CCCN=C(N)N)C(=O)N[C@@H](CCCCN)C(=O)N[C@@H](Cc1c[nH]c2ccccc12)C(=O)N[C@@H](CCCN=C(N)N)C(N)=O` [FWRIRKWR] registered an MIC in assay [1] of 25.7 µM (≈ 32 µg/mL).
On the same count and under the same terms, the figure for `CC[C@H](C)[C@H](NC(=O)CN)C(=O)NCC(=O)N[C@@H](CCCCN)C(=O)N[C@@H](Cc1ccccc1)C(=O)N[C@@H](CC(C)C)C(=O)N[C@@H](Cc1cnc[nH]1)C(=O)N[C@@H](CO)C(=O)N[C@@H](C)C(=O)N[C@@H](CCCCN)C(=O)N[C@@H](CCCCN)C(=O)N[C@@H](Cc1ccccc1)C(=O)NCC(=O)N[C@@H](CCCCN)C(=O)N[C@@H](C)C(=O)N[C@@H](Cc1ccccc1)C(=O)N[C@H](C(=O)NCC(=O)N[C@@H](CCC(=O)O)C(=O)N[C@H](C(=O)N[C@@H](CCSC)C(=O)N[C@@H](CC(N)=O)C(=O)N[C@@H](CO)C(=O)NCC(=O)NCC(=O)N[C@@H](CO)C(N)=O)[C@@H](C)CC)C(C)C` [GIGKFLHSAKKFGKAFVGEIMNSGGS] is 2.23 µM (≈ 5.94 µg/mL).
Same read-out and setting: under `CC[C@H](C)[C@H](NC(=O)CN)C(=O)N[C@@H](CC(C)C)C(=O)N[C@@H](CO)C(=O)N[C@H](C(=O)N[C@H](C(=O)N[C@@H](CCCCN)C(=O)N[C@@H](CC(=O)O)C(=O)N[C@@H](Cc1ccccc1)C(=O)N[C@@H](C)C(=O)N[C@H](C(=O)N[C@@H](CCCCN)C(=O)N[C@@H](C)C(=O)NCC(=O)N[C@@H](CCCCN)C(=O)NCC(=O)N[C@@H](C)C(=O)N[C@@H](C)C(=O)N[C@@H](CCCCN)C(=O)NCC(=O)N[C@@H](CC(C)C)C(=O)N[C@@H](CC(C)C)C(=O)N[C@@H](CCC(=O)O)C(=O)N[C@@H](CCSC)C(=O)N[C@@H](C)C(=O)N[C@@H](CO)C(=O)N[C@H]1CSSC[C@@H](C(=O)O)NC(=O)[C@H](CCC(N)=O)NC(=O)CNC(=O)[C@H](CO)NC(=O)[C@H](CC(C)C)NC(=O)[C@H](CCCCN)NC1=O)[C@@H](C)CC)[C@@H](C)CC)[C@@H](C)O` [GILSTIKDFAIKAGKGAAKGLLEMASCKLSGQC] stands 3 µM (≈ 9.93 µg/mL); under `CC[C@H](C)[C@H](NC(=O)CN)C(=O)N[C@@H](CCSC)C(=O)N[C@@H](CC(=O)O)C(=O)N[C@H](C(=O)N[C@H](C(=O)N[C@@H](CCCCN)C(=O)N[C@@H](CC(N)=O)C(=O)N[C@H](C(=O)N[C@@H](C)C(=O)N[C@@H](CCCCN)C(=O)N[C@@H](CC(N)=O)C(=O)N[C@@H](CC(C)C)C(=O)N[C@@H](C)C(=O)NCC(=O)N[C@@H](CCC(N)=O)C(=O)N[C@@H](CC(C)C)C(=O)N[C@@H](CC(C)C)C(=O)N[C@@H](CC(=O)O)C(=O)N[C@@H](CCCCN)C(=O)N[C@@H](CC(C)C)C(=O)N[C@@H](CCCCN)C(=O)N[C@H]1CSSC[C@@H](C(=O)O)NC(=O)[C@H](C)NC(=O)[C@H]([C@@H](C)O)NC(=O)[C@H]([C@@H](C)CC)NC(=O)[C@H](CCCCN)NC1=O)C(C)C)C(C)C)[C@@H](C)O` [GIMDTVKNVAKNLAGQLLDKLKCKITAC], 25 µM (≈ 74.7 µg/mL).
With `CC[C@H](C)[C@H](NC(=O)[C@H](CCSC)NC(=O)[C@@H](NC(=O)[C@H](CCC(=O)O)NC(=O)CNC(=O)[C@H](CC(C)C)NC(=O)[C@H](Cc1ccccc1)NC(=O)[C@H](C)NC(=O)[C@H](CCCCN)NC(=O)CNC(=O)[C@H](Cc1ccccc1)NC(=O)[C@H](CCCCN)NC(=O)CNC(=O)[C@H](C)NC(=O)[C@H](CO)NC(=O)[C@H](Cc1cnc[nH]1)NC(=O)[C@H](CC(C)C)NC(=O)[C@H](Cc1ccccc1)NC(=O)[C@H](CCCCN)NC(=O)CN)C(C)C)C(=O)NCC(=O)O` [GKFLHSAGKFGKAFLGEVMIG], the MIC in assay [1] and in assay [2] was over 100 µM each time.
As to `CC[C@H](C)[C@H](NC(=O)[C@H](CCCN=C(N)N)NC(=O)[C@H](CCCCN)NC(=O)[C@H](CC(C)C)NC(=O)[C@H](CC(C)C)NC(=O)CN)C(=O)N[C@@H](C)C(=O)N[C@H](C(=O)N[C@@H](CC(C)C)C(=O)N[C@@H](CC(C)C)C(N)=O)[C@@H](C)O` [GLLKRIATLL], the MIC in assay [1] and in assay [2] was 10 µM (≈ 11 µg/mL) throughout.
For `CC(C)C[C@H](NC(=O)[C@H](CCCCN)NC(=O)[C@H](CCCCN)NC(=O)[C@H](C)NC(=O)[C@H](CC(C)C)NC(=O)[C@H](CCCCN)NC(=O)[C@H](C)NC(=O)[C@H](CC(C)C)NC(=O)[C@H](CCCCN)NC(=O)[C@H](CCCCN)NC(=O)[C@H](C)NC(=O)[C@H](CC(C)C)NC(=O)[C@@H](N)CCCCN)C(=O)N[C@@H](C)C(N)=O` [KLAKKLAKLAKKLA], the MIC in assay [1] was 6 µM (≈ 9.14 µg/mL); in assay [3] it was 3 µM (≈ 4.57 µg/mL); in assay [2], 6 µM (≈ 9.14 µg/mL).
Turning to `CC(C)C[C@H](NC(=O)[C@H](CC(C)C)NC(=O)[C@@H](N)CCCCN)C(=O)N[C@@H](CCCN=C(N)N)C(=O)N[C@@H](CCCCN)C(=O)N[C@@H](CCCCN)C(=O)N[C@@H](Cc1ccccc1)C(=O)N[C@@H](Cc1c[nH]c2ccccc12)C(=O)N[C@@H](Cc1c[nH]c2ccccc12)C(=O)NCC(N)=O` [KLLRKKFWWG], the values for the MIC (in the assay on Escherichia coli; in assay [2]) were 91.8 µM (≈ 125 µg/mL) and 184 µM (≈ 250 µg/mL), respectively.
`CC[C@H](C)[C@H](NC(=O)[C@H](Cc1ccccc1)NC(=O)[C@H](CO)NC(=O)[C@H](CCCCN)NC(=O)[C@H](Cc1c[nH]c2ccccc12)NC(=O)[C@@H](N)CCCCN)C(=O)N[C@@H](CCCCN)C(=O)N[C@@H](CCCCN)C(=O)N[C@@H](CCCCN)C(=O)N[C@H](C(=O)N[C@@H](CO)C(=O)N[C@@H](CCCCN)C(=O)N[C@@H](Cc1ccccc1)C(=O)N[C@@H](CC(C)C)C(=O)N[C@@H](Cc1cnc[nH]1)C(=O)N[C@@H](CO)C(=O)N[C@@H](C)C(=O)N[C@@H](CCCCN)C(=O)N[C@@H](CCCCN)C(=O)N[C@@H](Cc1ccccc1)C(N)=O)[C@@H](C)O` [KWKSFIKKKTSKFLHSAKKF] yielded an MIC against Pseudomonas aeruginosa of over 20.3 µM.
Consider `CSCC[C@H](NC(=O)[C@H](CCCCN)NC(=O)[C@H](CCCCN)NC(=O)[C@H](CCCCN)NC(=O)[C@H](CCCN=C(N)N)NC(=O)[C@H](CCCN=C(N)N)NC(=O)[C@H](Cc1ccc(O)cc1)NC(=O)[C@@H](N)CCCN=C(N)N)C(=O)N[C@@H](CCCCN)C(=O)N[C@@H](CCCCN)C(N)=O` [RYRRKKKMKK], for which the MIC in assay [1] and in assay [3] was over 100 µM throughout.
In the assay on Escherichia coli, `CC[C@H](C)[C@H](NC(=O)[C@H](Cc1c[nH]c2ccccc12)NC(=O)[C@H](CCCCN)NC(=O)[C@@H]1CCCN1C(=O)[C@H](CC(C)C)NC(=O)[C@H](CCCCN)NC(=O)CNC(=O)[C@@H](NC(=O)[C@@H](NC(=O)[C@@H](N)CO)[C@@H](C)O)[C@@H](C)CC)C(=O)N[C@H](C(=O)N[C@@H](CCCCN)C(=O)N[C@H](C(=O)N[C@H](C(=O)N[C@@H](CC(N)=O)C(=O)N[C@@H](CCCCN)C(=O)N[C@@H](Cc1ccccc1)C(=O)N[C@H](C(=O)N[C@@H](CCCCN)C(=O)N[C@@H](CCCCN)C(=O)O)[C@@H](C)O)C(C)C)[C@@H](C)O)[C@@H](C)CC` [STIGKLPKWIIKTVNKFTKK] yielded an MIC of 2.8 µM (≈ 6.53 µg/mL).
On to `CC(C)C[C@H](NC(=O)[C@H](Cc1ccccc1)NC(=O)[C@@H]1CCCN1C(=O)[C@H](Cc1c[nH]c2ccccc12)NC(=O)[C@H](Cc1c[nH]c2ccccc12)NC(=O)[C@H](C)NC(=O)[C@@H]1CCCN1C(=O)[C@H](Cc1ccccc1)NC(=O)[C@H](CCCN=C(N)N)NC(=O)[C@H](CCCN=C(N)N)NC(=O)[C@@H](N)C(C)C)C(=O)N[C@@H](CCCN=C(N)N)C(=O)N[C@@H](CCCN=C(N)N)C(N)=O` [VRRFPAWWPFLRR], for which the MIC in assay [1] turned out to be 45.3 µM (≈ 80.8 µg/mL).
